Assay results: patent US10179782B2, “Substituted sulfonamide compounds” (Genentech, Inc., priority 2016, dated 2019)

target: T1, human TRPA1 (Homo sapiens, UniProt O75762); test: TRPA1 FLIPR Tetra calcium influx assay in CHO cells (block of cinnamaldehyde-induced calcium influx); format: cell-based; conditions: Table 2; CHO cells expressing TRPA1; agonist cinnamaldehyde 75 uM; 20 min compound incubation; Hill coefficient fixed to 1.5; read-out: hTRPA1 CHO Ca2+ AUC EVO (IC50)
T1 construct: expressed in transfected cells; host or cells: CHO cells
T1 sequence (O75762 whole entry): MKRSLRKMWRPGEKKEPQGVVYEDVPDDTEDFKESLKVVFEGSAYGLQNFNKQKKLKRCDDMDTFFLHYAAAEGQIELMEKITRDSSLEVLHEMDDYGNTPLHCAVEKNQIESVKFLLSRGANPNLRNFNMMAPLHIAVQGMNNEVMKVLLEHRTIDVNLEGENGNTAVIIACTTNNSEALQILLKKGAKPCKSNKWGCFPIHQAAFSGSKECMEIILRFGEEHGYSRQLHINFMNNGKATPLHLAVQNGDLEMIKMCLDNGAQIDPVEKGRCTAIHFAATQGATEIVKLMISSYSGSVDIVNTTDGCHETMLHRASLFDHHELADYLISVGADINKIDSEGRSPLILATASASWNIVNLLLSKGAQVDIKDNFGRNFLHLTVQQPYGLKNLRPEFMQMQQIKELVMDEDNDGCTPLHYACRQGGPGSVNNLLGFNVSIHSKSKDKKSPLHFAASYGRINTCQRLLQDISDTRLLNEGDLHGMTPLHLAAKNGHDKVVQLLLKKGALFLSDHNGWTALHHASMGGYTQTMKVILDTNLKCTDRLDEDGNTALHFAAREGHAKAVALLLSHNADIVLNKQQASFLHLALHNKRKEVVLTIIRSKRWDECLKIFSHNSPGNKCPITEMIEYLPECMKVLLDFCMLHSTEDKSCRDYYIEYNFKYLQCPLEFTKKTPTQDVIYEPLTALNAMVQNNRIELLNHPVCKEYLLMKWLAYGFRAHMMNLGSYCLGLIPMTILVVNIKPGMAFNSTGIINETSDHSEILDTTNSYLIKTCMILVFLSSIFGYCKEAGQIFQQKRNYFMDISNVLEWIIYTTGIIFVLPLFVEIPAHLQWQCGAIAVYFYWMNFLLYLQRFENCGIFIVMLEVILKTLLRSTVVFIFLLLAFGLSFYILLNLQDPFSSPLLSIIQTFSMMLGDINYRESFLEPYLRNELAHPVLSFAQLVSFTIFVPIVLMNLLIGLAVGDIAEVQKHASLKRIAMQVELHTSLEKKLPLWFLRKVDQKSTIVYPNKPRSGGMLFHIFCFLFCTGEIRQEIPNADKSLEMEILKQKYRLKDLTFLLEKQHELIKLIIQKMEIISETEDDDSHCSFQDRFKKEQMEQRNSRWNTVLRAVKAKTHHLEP
In short: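 CHO cells expressing TRPA1 were loaded with calcium dye in HBSS/20 mM HEPES, pH 7.4, 0.02% BSA, then given compound for 20 min at room temperature before ~EC80 cinnamaldehyde (75 µM human, 45 µM rat). Block of calcium influx was read on FLIPR Tetra; IC50 fitted with Hill coefficient fixed at 1.5.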

| IC50 | Compound |
| --- | --- |
| 5.51 nM | C[C@H]1[C@H](F)C[C@@H](C(=O)NCc2cc(-c3cnc(C(F)(F)F)nc3)ncc2OCC(F)(F)F)N1S(=O)(=O)c1ccc(F)cc1 [Example 122, (2S,4R,5S)-4-fluoro-1-(4-fluorophenylsulfonyl)-5-methyl-N-((5-(2,2,2-trifluoroethoxy)-2-(2-(trifluoromethyl)pyrimidin-5-yl)pyridin-4-yl)methyl)pyrrolidine-2-carboxamide] |
| 10.8 nM | C[C@H]1[C@H](F)C[C@@H](C(=O)NCc2cc(C(F)(F)F)nc(C3CC3)c2F)N1S(=O)(=O)c1ccc(F)cc1 [Example 123, (2S,4R,5S)-N-[[2-cyclopropyl-3-fluoro-6-(trifluoromethyl)-4-pyridyl]methyl]-4-fluoro-1-(4-fluorophenyl)sulfonyl-5-methyl-pyrrolidine-2-carboxamide] |
| 2.3 nM | C[C@H]1[C@H](F)C[C@@H](C(=O)NCc2cc(-c3cnc(C(F)(F)F)nc3)nc(OCC(F)(F)F)n2)N1S(=O)(=O)c1ccc(F)cc1 [Example 124, (2S,4R,5S)-4-fluoro-1-(4-fluorophenyl)sulfonyl-5-methyl-N-[[2-(2,2,2-trifluoroethoxy)-6-[2-(trifluoromethyl)pyrimidin-5-yl]pyrimidin-4-yl]methyl]pyrrolidine-2-carboxamide] |
| 4.9 nM | C[C@H]1[C@H](F)C[C@@H](C(=O)NCc2cc(-c3cnc(C(F)(F)F)nc3)ncc2C2CC2)N1S(=O)(=O)c1ccc(F)cc1 [Example 125, (2S,4R,5S)-N-[[5-cyclopropyl-2-[2-(trifluoromethyl)pyrimidin-5-yl]-4-pyridyl]methyl]-4-fluoro-1-(4-fluorophenyl)sulfonyl-5-methyl-pyrrolidine-2-carboxamide] |
| 12.8 nM | COc1nc(CNC(=O)[C@@H]2C[C@@H](F)[C@H](C)N2S(=O)(=O)c2ccc(F)cc2)cc(-c2cnc(C(F)(F)F)nc2)n1 [Example 126, (2S,4R,5S)-4-fluoro-1-(4-fluorophenyl)sulfonyl-N-[[2-methoxy-6-[2-(trifluoromethyl)pyrimidin-5-yl]pyrimidin-4-yl]methyl]-5-methyl-pyrrolidine-2-carboxamide] |
| 4.27 nM | C[C@H]1[C@H](F)C[C@@H](C(=O)NCc2cc([C@H]3C[C@@H](OC(F)(F)F)C3)ncc2F)N1S(=O)(=O)c1ccc(F)cc1 [Example 127, (2S,4R,5S)-4-fluoro-1-(4-fluorophenyl)sulfonyl-N-[[5-fluoro-2-[3-(trifluoromethoxy)cyclobutyl]-4-pyridyl]methyl]-5-methyl-pyrrolidine-2-carboxamide] |
| 18.2 nM | C[C@H]1[C@H](F)C[C@@H](C(=O)NCc2cc(-c3cc(C(F)(F)F)nn3C)ncc2F)N1S(=O)(=O)c1ccc(F)cc1 [Example 128, (2S,4R,5S)-4-fluoro-N-[[5-fluoro-2-[2-methyl-5-(trifluoromethyl)pyrazol-3-yl]-4-pyridyl]methyl]-1-(4-fluorophenyl)sulfonyl-5-methyl-pyrrolidine-2-carboxamide] |
| 4.14 nM | C[C@H]1[C@H](F)C[C@@H](C(=O)NCc2cc(-c3cnc(C(F)(F)F)s3)ncc2C#N)N1S(=O)(=O)c1ccc(F)cc1 [Example 129, (2S,4R,5S)—N-((5-cyano-2-(2-(trifluoromethyl)thiazol-5-yl)pyridin-4-yl)methyl)-4-fluoro-1-((4-fluorophenyl)sulfonyl)-5-methylpyrrolidine-2-carboxamide] |
| 3.82 nM | C[C@H]1[C@H](F)C[C@@H](C(=O)NCc2cc(-c3cnc(C(F)(F)F)nc3)cc(C3CC3)n2)N1S(=O)(=O)c1ccc(F)cc1 [Example 130, (2S,4R,5S)-N-[[6-cyclopropyl-4-[2-(trifluoromethyl)pyrimidin-5-yl]-2-pyridyl]methyl]-4-fluoro-1-(4-fluorophenyl)sulfonyl-5-methyl-pyrrolidine-2-carboxamide] |
| 4.04 nM | C[C@H]1[C@H](F)C[C@@H](C(=O)NCc2cc(-c3cnc(C(F)(F)F)nc3)c(F)c(C3CC3)n2)N1S(=O)(=O)c1ccc(F)cc1 [Example 131, (2S,4R,5S)-N-[[6-cyclopropyl-5-fluoro-4-[2-(trifluoromethyl)pyrimidin-5-yl]-2-pyridyl]methyl]-4-fluoro-1-(4-fluorophenyl)sulfonyl-5-methyl-pyrrolidine-2-carboxamide] |
| 15.2 nM | C[C@H]1[C@H](F)C[C@@H](C(=O)NCc2cc(OC[C@@H]3C[C@H]3C(F)(F)F)nc(C3CC3)n2)N1S(=O)(=O)c1ccc(F)cc1 [Example 132, (2S,4R,5S)-N-[[2-cyclopropyl-6-[[(1R,2R)-2-(trifluoromethyl)cyclopropyl]methoxy]pyrimidin-4-yl]methyl]-4-fluoro-1-(4-fluorophenyl)sulfonyl-5-methyl-pyrrolidine-2-carboxamide] |
| 30.5 nM | C[C@H]1[C@H](F)C[C@@H](C(=O)NCc2cc(-c3cnc(C(F)(F)F)nc3)c(C(F)F)cn2)N1S(=O)(=O)c1ccc(F)cc1 [Example 133, (2S,4R,5S)-N-[[5-(difluoromethyl)-4-[2-(trifluoromethyl)pyrimidin-5-yl]-2-pyridyl]methyl]-4-fluoro-1-(4-fluorophenyl)sulfonyl-5-methyl-pyrrolidine-2-carboxamide] |
| 32.6 nM | C[C@H]1[C@H](F)C[C@@H](C(=O)NCc2cc(-c3cnc(C(F)(F)F)c(C#N)c3)ncc2F)N1S(=O)(=O)c1ccc(F)cc1 [Example 134, (2S,4R,5S)-N-[[2-[5-cyano-6-(trifluoromethyl)-3-pyridyl]-5-fluoro-4-pyridyl]methyl]-4-fluoro-1-(4-fluorophenyl)sulfonyl-5-methyl-pyrrolidine-2-carboxamide] |
| 19.3 nM | C[C@H]1[C@H](F)C[C@@H](C(=O)NCc2nc(-c3cnc(C(F)(F)F)nc3)ncc2C(F)(F)F)N1S(=O)(=O)c1ccc(F)cc1 [Example 135, (2S,4R,5S)-4-fluoro-1-(4-fluorophenyl)sulfonyl-5-methyl-N-[[5-(trifluoromethyl)-2-[2-(trifluoromethyl)pyrimidin-5-yl]pyrimidin-4-yl]methyl]pyrrolidine-2-carboxamide] |
| 8.11 nM | C[C@H]1[C@H](F)C[C@@H](C(=O)NCc2cc(-c3cnc(C(F)(F)F)nc3)ncc2CC(F)(F)F)N1S(=O)(=O)c1ccc(F)cc1 [Example 136, (2S,4R,5S)-4-fluoro-1-(4-fluorophenyl)sulfonyl-5-methyl-N-[[5-(2,2,2-trifluoroethyl)-2-[2-(trifluoromethyl)pyrimidin-5-yl]-4-pyridyl]methyl]pyrrolidine-2-carboxamide] |
| 0.7 nM | C[C@H]1[C@H](F)C[C@@H](C(=O)NCc2cc(-c3cnc(C(F)(F)F)nc3)nc(C3CC3)c2C(F)(F)F)N1S(=O)(=O)c1ccc(F)cc1 [Example 137, (2S,4R,5S)-N-[[2-cyclopropyl-3-(trifluoromethyl)-6-[2-(trifluoromethyl)pyrimidin-5-yl]-4-pyridyl]methyl]-4-fluoro-1-(4-fluorophenyl)sulfonyl-5-methyl-pyrrolidine-2-carboxamide] |
| 11.7 nM | C[C@H]1[C@H](F)C[C@@H](C(=O)NCc2cc(-c3cnc(C(F)(F)F)nc3)ncc2CF)N1S(=O)(=O)c1ccc(F)cc1 [Example 138] |
| 2.77 nM | C[C@H]1[C@H](F)C[C@@H](C(=O)NCc2cc(-c3ccc(C(F)(F)F)cc3)ncc2OC(F)(F)F)N1S(=O)(=O)c1ccc(F)cc1 [Example 139, (2S,4R,5S)-4-fluoro-1-(4-fluorophenyl)sulfonyl-5-methyl-N-[[5-(trifluoromethoxy)-2-[4-(trifluoromethyl)phenyl]-4-pyridyl]methyl]pyrrolidine-2-carboxamide] |
| 3.56 nM | C[C@H]1[C@H](F)C[C@@H](C(=O)NCc2cc([C@H]3C[C@H](OC(F)(F)F)C3)ncc2F)N1S(=O)(=O)c1ccc(F)cc1 [Example 140, (2S,4R,5S)-4-fluoro-1-(4-fluorophenyl)sulfonyl-N-[[5-fluoro-2-[3-(trifluoromethoxy)cyclobutyl]-4-pyridyl]methyl]-5-methyl-pyrrolidine-2-carboxamide] |
| 20.4 nM | C[C@H]1[C@H](F)C[C@@H](C(=O)NCc2cc(-c3cnc(C4CC4)nc3)ncc2F)N1S(=O)(=O)c1ccc(F)cc1 [Example 141, (2S,4R,5S)-N-[[2-(2-cyclopropylpyrimidin-5-yl)-5-fluoro-4-pyridyl]methyl]-4-fluoro-1-(4-fluorophenyl)sulfonyl-5-methyl-pyrrolidine-2-carboxamide] |
| 12 nM | C[C@H]1[C@H](F)C[C@@H](C(=O)NCc2cc(-c3cnc(C(F)(F)F)nc3)c(C#N)c(C3CC3)n2)N1S(=O)(=O)c1ccc(F)cc1 [Example 142, (2S,4R,5S)—N-([5-cyano-6-cyclopropyl-4-[2-(trifluoromethyl)pyrimidin-5-yl]pyridin-2-yl]methyl)-4-fluoro-1-[(4-fluorobenzene)sulfonyl]-5-methylpyrrolidine-2-carboxamide] |
| 22.4 nM | C[C@H]1[C@H](F)C[C@@H](C(=O)NCc2cc(OCCC3(C(F)(F)F)CC3)nc(C3CC3)n2)N1S(=O)(=O)c1ccc(F)cc1 [Example 143, (2S,4R,5S)-N-[[2-cyclopropyl-6-[2-[1-(trifluoromethyl)cyclopropyl]ethoxy]pyrimidin-4-yl]methyl]-4-fluoro-1-(4-fluorophenyl)sulfonyl-5-methyl-pyrrolidine-2-carboxamide] |
| 17 nM | C[C@H]1[C@H](F)C[C@@H](C(=O)NCc2cc(-c3cnc(C(F)(F)F)c(F)c3)c(F)cn2)N1S(=O)(=O)c1ccc(F)cc1 [Example 144, (2S,4R,5S)-4-fluoro-N-[[5-fluoro-4-[5-fluoro-6-(trifluoromethyl)-3-pyridyl]-2-pyridyl]methyl]-1-(4-fluorophenyl)sulfonyl-5-methyl-pyrrolidine-2-carboxamide] |
| 8.36 nM | C[C@H]1[C@H](F)C[C@@H](C(=O)NCc2cc(N3CC[C@H](OC(F)(F)F)C(F)(F)C3)ncc2F)N1S(=O)(=O)c1ccc(F)cc1 [Example 145, (2S,4R,5S)-N-[[2-[(4S)-3,3-difluoro-4-(trifluoromethoxy)-1-piperidyl]-5-fluoro-4-pyridyl]methyl]-4-fluoro-1-(4-fluorophenyl)sulfonyl-5-methyl-pyrrolidine-2-carboxamide] |
